Laboratory results: US11859252B2, “Diagnostic and therapeutic methods for cancer” (Genentech, Inc., priority 2017, dated 2024)
“Also recorded” adds a separate entry of the source.

How the values were obtained:
pMEK, pERK, pRSK, pAKT = experiment: Immunoblot of pathway markers after compound treatment; type: cell-based; details: A549
Method: (§1) Cells lysed in lysis buffer (0.5% NP40, 20 mM Tris, pH 7.5, 137 mM NaCl, 10% glycerol, 1 mM EDTA) plus protease inhibitor mixture-complete mini (Roche Applied Science, 11836170001) and phosphatase inhibitor mix (Thermo, 78426). Lysates were centrifuged at 15,000 rpm for 10 minutes and the protein concentration determined using BCA (Thermo, 23227). Equal amounts of protein were subjected to SDS-PAGE NuPAGE 4-12% Bis-Tris Gel (Novex, WG-1403) and transferred to nitrocellulose membrane (BioRad, 170-4159). After blocking in blocking buffer (Li-Cor, 927-40000), membranes were incubated with the indicated primary antibodies and analyzed either by the addition of secondary antibodies IRDye 680LT Goat anti-Mouse IgG (H+L) (Li-Cor, 926-68050) or IRDye 800CW goat anti-Rabbit IgG (H+L) (Li-Cor, 926-32211). The membranes were visualized on the LiCor Odyssey CLx Scanner.

DUSP6 and SPRY4 = experiment: RNA sequencing of MAPK transcriptional targets; type: cell-based; details: 0.1 μM AZ-628 combined with cobimetinib; six hours; four KRAS mutant lung cancer cell lines; FIG. 2C
Method: Cells were seeded overnight and treated with AZ-628 and cobimetinib either singly (0.1 μM) or in combination (0.1 μM each) for 6 hours. Control cells were treated with DMSO (0.2% final concentration). Total RNA was extracted as per manufacturer's protocol using RNEasy mini kits with on-column DNAse digestion (Qiagen #74106 and #79254). Quality control of samples was done to determine RNA quantity and quality prior to their processing by RNA-seq. The concentration of RNA samples was determined using NanoDrop 8000 (Thermo Scientific) and the integrity of RNA was determined by Fragment Analyzer (Advanced Analytical Technologies). 0.5 μg of total RNA was used as an input material for library preparation using TruSeq RNA Sample Preparation Kit v2 (Illumina). Size of the libraries was confirmed using 2200 TapeStation and High Sensitivity D1000 screen tape (Agilent Technologies) and their concentration was determined by qPCR based method using Library quantification kit (KAPA). The libraries were multiplexed and then sequenced on Illumina HiSeq2500 (Illumina) to generate 30M of single-end 50 base pair reads.
Reads were mapped to the hg19 genome using RefSeq gene models with the aligner GSNAP. […] Significance for linear model terms was determined by moderated t-tests as implemented in the limma software.

A549 cells [1] = experiment: Apoptosis: cleaved PARP Western blot and Annexin V/propidium iodide flow cytometry; type: cell-based; details: AZ-628 combined with cobimetinib; 48 hours; FIG. 2D-2E
Method: as §1

A549 cells [2] = experiment: Clonogenic (colony growth) assay; type: cell-based
Method: (§2) Cells were plated in duplicate in 6-well plates at 10,000 cells/well, allowed to attach overnight and treated for 8 days with the indicated compounds. Media with appropriate compounds was replenished every 72 hours. At 8 days cells were rinsed once with PBS, fixed and stained with crystal violet solution (Sigma Aldrich, HT90132) for 20 minutes and washed with water.

[3] = tested on: 322 cell lines (pancreas, lung, colorectal, skin, ovary and blood); experiment: 322 cell line screen, AZ-628 and cobimetinib single agents and co-dilution; type: cell-based
Method: (§3) Compounds were screened in nine-point dose response using a three-fold dilution. Cells were seeded into 384-well plates 24 hours prior to compound addition. Cells were then incubated with compound for 72 hours or 120 hours before assaying viability (CellTiter-Glo, Promega). Assays were performed in biological triplicate. Cells were incubated (37° C., 5% CO2) in RPMI-1640, 2.5% FBS (72 hour assay) or 5% FBS (120 hour assay), and 2 mM glutamine throughout the assay. The reported IC50 and mean viability metrics are as follows: IC50 is the dose at which the estimated inhibition is 50% relative to untreated wells (i.e., absolute IC50). Mean viability is equivalent to the area under the log-dose/viability curve divided by the total number of tested doses.
(§4) For combination synergy studies, cells were plated in 384-well plates (Corning) and treated with varying concentrations of compound, either alone or in combination for 72 hours. Cell viability was determined using CellTiter-Glo Luminescent Cell Viability Assay (Promega, G7573). Synergistic effects were determined using the Bliss independence analysis methods (Greco et al. Pharmacol. Rev. 47: 331-385, 1995; Chou and Talalay. Adv. Enzyme Regul. 22:27-55, 1984; Chou. Cancer Res. 70: 440-446, 2010; Bliss. Ann. Appl. Biol. 25: 31, 1939).

SW48 isogenic cell line = experiment: SW48 isogenic KRAS knock-in cells, crystal violet and pERK Western blot; type: cell-based; details: AZ-628 starting at 0.1 μM, cobimetinib 250 nM; FIGS. 6F-6G
Method: as §2, §1

[4] = tested on: panel of 213 tumor cell lines; experiment: 213 cell line panel, co-diluted combinations with pictilisib; type: cell-based; details: 3 days, FIG. 7A
Method: as §3, §4

[5] = tested on: NRAS mutant melanoma cell line; experiment: Viability of NRAS mutant melanoma versus BRAF-V600E and wild-type lines; type: cell-based
Method: Compounds were screened in nine-point dose response using a three-fold dilution. Cells were seeded into 384-well plates 24 hours prior to compound addition. Cells were then incubated with compound for 72 hours or 120 hours before assaying viability (CellTiter-Glo, Promega). Assays were performed in biological triplicate. […] Mean viability is equivalent to the area under the log-dose/viability curve divided by the total number of tested doses.

[6] = tested on: NCI-H2122 lung xenograft tumor; experiment: NCI-H2122 lung xenograft tumor model
Method: The formulations were mixed well by vortexing before dosing. Test articles were stored in a refrigerator set to maintain a temperature range of 4° C.-7° C.
Only animals that appeared to be healthy and that were free of obvious abnormalities were used for each study. Tumor volumes were determined using digital calipers (Fred V. Fowler Company, Inc.) using the formula (L×W×W)/2. […] Mice were weighed twice a week using a standard scale.

## Cc1ccc(NC(=O)c2cccc(C(C)(C)C#N)c2)cc1Nc1ccc2ncn(C)c(=O)c2c1 [AZ-628]
pMEK, pERK, pRSK, pAKT; AZ-628 combined with pictilisib, 24 hours, FIG. 7G
  pMEK accumulation and signaling to ERK: prevent the accumulation of pMEK and abrogate downstream signaling to ERK
pMEK, pERK, pRSK, pAKT; AZ-628 in combination with cobimetinib, FIG. 2B
  pAKT levels: little observed impact on pAKT levels
pMEK, pERK, pRSK, pAKT; RAF inhibitor 0.1-10 μM with or without fixed dose cobimetinib, 24 hours, FIG. 2B
  MAPK pathway output (pMEK, pERK, pRSK): only in combination with cobimetinib effectively inhibited MAPK pathway output
DUSP6 and SPRY4
  downregulation of DUSP6 and SPRY4: downregulation of these genes was more profound than expected if the effect of combining the two single agents was merely additive
A549 cells [1]
  induction of apoptosis: significant induction of cell apoptosis; also recorded: increased cleaved PARP
A549 cells [2]; 8-day clonogenic, 50-100 nM cobimetinib, 100 nM AZ-628
  single-agent effect on cell growth: had little effect on cell growth on their own
A549 cells [2]; 8 days, crystal violet, FIG. 2F, 5E
  synergy with cobimetinib in colony formation: marked synergy
[3]; AZ-628 and cobimetinib, FIGS. 6A-6C
  association of combination sensitivity with KRAS-G13D: significant association between sensitivity to the RAF plus MEK inhibitor combination and presence of the G13D mutation; also recorded: KRAS-G13D mutant cell lines are more sensitive to the combination of RAF and MEK inhibition
[3]; co-dilution with cobimetinib, 3 days, FIG. 5A
  synergy score (positive Bliss excess) with cobimetinib by genotype: Significantly higher synergy scores were observed in KRAS and NRAS mutant cell lines compared to either BRAF-V600 mutants or wild-type; also recorded: greater synergy in RAS mutant (G12/G13/Q61) cell lines, and a subset of RAS/RAF wild-type cell lines relative to BRAF-V600 cell lines
SW48 isogenic cell line
  synergy with cobimetinib by KRAS knock-in: displayed greater synergy than KRAS-G12D and KRAS-G12C knock-in cells; also recorded: greater in KRAS-G13D mutant SW48 cells compared to KRAS-G12D or KRAS-G12C mutant SW48 cells
[4]
  synergy (positive Bliss excess) with pictilisib: large general increased synergy in the AZ-628/pictilisib combination compared to the cobimetinib/pictilisib combination; also recorded: synergizes with pan-PI3K inhibitor, pictilisib (GDC-0941)
[5]; FIG. 8A
  effect on mean viability, NRAS mutant vs BRAF-V600E: approximately equivalent effects on mean viability
[5]; separate study, FIGS. 8C and 8D
  cell viability and 1050, NRAS mutant vs BRAF-V600E: had an equivalent effect in NRAS mutant and BRAF-V600E mutant cell lines
[6]; NCI-H2122, AZ-628+GDC-0973, FIG. 3A
  tumor growth, combination with cobimetinib: robust combination effect
[6]; NCI-H2122 xenograft mice, combination with cobimetinib, FIG. 3B
  tolerability / body weight: well tolerated in the mice, resulting in little or minimal changes in body weight post-treatment
